Experimental data reported in DBAASP.
Values after ≈ are worked out from the molar mass of the structure shown. Each block holds one molecule with its values, some of them ahead of it.

Key:
Assay in all cases: ≥ marks a high value that may be exact or a test limit, other limits are often not marked, values filed in µg/mL are converted to µM
[1] = tested on: Escherichia coli JW2778 ΔygdD
[2] = tested on: Salmonella enterica subsp. enterica serovar Enteritidis MH91989
[3] = tested on: Escherichia coli JW0368 ΔsbmA
Escherichia coli JJ2489 = tested on: Escherichia coli JJ2489
Escherichia coli J2210 = tested on: Escherichia coli J2210
Escherichia coli MC1041 = tested on: Escherichia coli MC1041
Escherichia coli JW0013 = tested on: Escherichia coli JW0013
[4] = tested on: Salmonella typhimurium SL1344
Escherichia coli BW25113 = tested on: Escherichia coli BW25113
[5] = tested on: Pseudomonas aeruginosa ATCC 27853
[6] = tested on: Escherichia coli CMCC 44102
[7] = tested on: Staphylococcus epidermidis ATCC 12228
[8] = tested on: Staphylococcus aureus CMCC 26003
[9] = tested on: Bacillus subtilis MTCC 14416
[10] = tested on: Staphylococcus aureus ATCC 43300
Escherichia coli MG1655 = tested on: Escherichia coli MG1655
[11] = tested on: Enterococcus faecalis ATCC 29212
Vibrio cholerae = tested on: Vibrio cholerae
[12] = tested on: Staphylococcus aureus MTCC 9542
[13] = tested on: Escherichia coli KCTC 2223
[14] = tested on: Staphylococcus aureus ATCC 15752
[15] = tested on: Salmonella typhimurium KCTC 2370
[16] = tested on: Micrococcus luteus ATCC 10240
[17] = tested on: Salmonella enterica subsp. enterica CMCC 47020
[18] = tested on: Listeria monocytogenes CMCC 54004
[19] = tested on: Cronobacter sakazakii ATCC 29544
[20] = tested on: Salmonella enterica subsp. enterica serovar Pullorum C79-13
[21] = tested on: Salmonella enterica subsp. enterica serovar Typhimurium C77-31
[22] = tested on: Salmonella enterica subsp. enterica serovar Typhimurium ATCC 14028
[23] = tested on: Salmonella enterica subsp. enterica serovar Typhi CMCC 50071
[24] = tested on: Staphylococcus aureus ATCC 25923
[25] = tested on: Bacillus cereus CMCC 6303
Escherichia coli UB1005 = tested on: Escherichia coli UB1005
[26] = tested on: Staphylococcus aureus CMCC 26074
[27] = tested on: Trichophyton rubrum ATCC 28189
[28] = tested on: Candida parapsilosis ATCC 22019
[29] = tested on: Candida albicans ATCC 24433
Escherichia coli = tested on: Escherichia coli
Staphylococcus aureus = tested on: Staphylococcus aureus

SMILES: CC[C@H](C)[C@H](NC(=O)[C@H](Cc1ccc(O)cc1)NC(=O)[C@@H](NC(=O)[C@@H]1CCCN1C(=O)[C@H](CCCCN)NC(=O)[C@H](CC(N)=O)NC(=O)[C@H](CC(N)=O)NC(=O)CN)C(C)C)C(=O)N1CCC[C@H]1C(=O)N[C@@H](CCC(N)=O)C(=O)N1CCC[C@H]1C(=O)N[C@@H](CCCN=C(N)N)C(=O)N1CCC[C@H]1C(=O)N1CCC[C@H]1C(=O)N[C@@H](CCCN=C(N)N)C(=O)N1CCC[C@H]1C(=O)N[C@@H](CCCN=C(N)N)C(=O)N[C@@H](CC(C)C)C(=O)O [GNNKPVYIPQPRPPRPRL]
MIC [1]: 0.096 µM (≈ 0.202 µg/mL)
MIC [2]: 0.067 µM (≈ 0.141 µg/mL)
MIC [3]: 0.384 µM (≈ 0.806 µg/mL)
MIC (Escherichia coli JJ2489): 0.067 µM (≈ 0.141 µg/mL)
MIC (Escherichia coli J2210): 0.133 µM (≈ 0.279 µg/mL)
MIC (Escherichia coli MC1041): 0.096 µM (≈ 0.202 µg/mL)
MIC (Escherichia coli JW0013): 0.048 µM (≈ 0.101 µg/mL)
MIC [4]: 0.126 µM (≈ 0.265 µg/mL)
MIC (Escherichia coli BW25113): 0.048 µM (≈ 0.101 µg/mL)

SMILES: CC[C@H](C)[C@H](NC(=O)[C@H](CCCN=C(N)N)NC(=O)[C@H](CCCN=C(N)N)NC(=O)[C@H](CC(C)C)NC(=O)[C@H](Cc1ccccc1)NC(=O)[C@@H]1CCCN1C(=O)[C@H](CCCN=C(N)N)NC(=O)[C@H](CCSC)NC(=O)[C@@H](NC(=O)[C@H](CCCCN)NC(=O)[C@H](CCCCN)NC(=O)[C@H](CS)NC(=O)[C@@H](NC(=O)CNC(=O)[C@H](CCCN=C(N)N)NC(=O)[C@H](CC(C)C)NC(=O)[C@@H](NC(=O)[C@@H](N)CCCCN)[C@@H](C)CC)C(C)C)[C@@H](C)CC)C(=O)N[C@@H](CO)C(=O)N[C@@H](CCCCN)C(=O)N[C@@H](CC(=O)O)C(=O)N[C@H](C(=O)N[C@@H](CC(C)C)C(=O)N[C@H](C(=O)NCC(=O)N[C@@H](CCCCN)C(=O)N[C@@H](CCCCN)C(N)=O)[C@@H](C)O)[C@@H](C)CC [KILRGVCKKIMRPFLRRISKDILTGKK]
MIC [5]: 16 µM (≈ 51.2 µg/mL)
MIC [6]: 4 µM (≈ 12.8 µg/mL)
MIC [7]: 4 µM (≈ 12.8 µg/mL)
MIC [8]: 4 µM (≈ 12.8 µg/mL)

SMILES: CC[C@H](C)[C@@H]1NC(=O)[C@H](CCCCN)NC(=O)[C@@H](NC(=O)[C@H](CC(C)C)NC(=O)[C@@H](NC(=O)[C@H](CCC(N)=O)NC(=O)[C@@H]2CCCN2C(=O)[C@H](CC(C)C)NC(=O)[C@H](Cc2ccccc2)NC(=O)[C@H](CC(N)=O)NC(=O)[C@H](C)NC(=O)[C@H](C)NC(=O)[C@@H](N)CC(C)C)[C@@H](C)CC)CSSC[C@@H](C(N)=O)NC(=O)[C@H](CCCCN)NC(=O)[C@H](CCCN=C(N)N)NC(=O)[C@H](C)NC1=O [LAANFLPQILCKIARKC]
MIC [9]: 26.3 µM (≈ 49.9 µg/mL)
MIC [10]: 26.3 µM (≈ 49.9 µg/mL)
MIC [5]: > 52.6 µM
MIC (Escherichia coli MG1655): 6.57 µM (≈ 12.5 µg/mL)
MIC [11]: 52.6 µM (≈ 99.8 µg/mL)
MIC (Vibrio cholerae): 6.57 µM (≈ 12.5 µg/mL)
MIC [12]: 3.23 µM (≈ 6.14 µg/mL)

SMILES: CC(C)C[C@H](NC(=O)[C@H](CCCCN)NC(=O)[C@H](CCC(N)=O)NC(=O)[C@H](CCCCN)NC(=O)[C@H](CC(C)C)NC(=O)[C@H](CC(C)C)NC(=O)[C@H](CCC(N)=O)NC(=O)[C@H](CC(C)C)NC(=O)[C@H](CC(C)C)NC(=O)[C@@H]1CCCN1C(=O)[C@H](CCCN=C(N)N)NC(=O)[C@H](CC(C)C)NC(=O)[C@H](CC(C)C)NC(=O)[C@H](CCCN=C(N)N)NC(=O)CNC(=O)CNC(=O)CNC(=O)[C@@H]1CCCN1C(=O)[C@@H]1CCCN1C(=O)CNC(=O)[C@H](CCCN=C(N)N)NC(=O)[C@@H](NC(=O)[C@H](CCCCN)NC(=O)[C@@H](N)CCCN=C(N)N)C(C)C)C(=O)N[C@@H](CCCN=C(N)N)C(=O)O [RKVRGPPGGGRLLRPLLQLLKQKLR]
MIC [13]: 2 µM (≈ 5.7 µg/mL)
MIC [14]: 2 µM (≈ 5.7 µg/mL)
MIC [15]: 4 µM (≈ 11.4 µg/mL)
MIC [16]: 0.5 µM (≈ 1.43 µg/mL)

The next lines start with the values.

MIC [17]: ≥ 64 µM
MIC [18]: 2 µM (≈ 3.27 µg/mL)
MIC [19]: ≥ 32 µM
MIC [20]: 8 µM (≈ 13.1 µg/mL)
MIC [21]: ≥ 32 µM
MIC [22]: 32 µM (≈ 52.4 µg/mL)
MIC [23]: 8 µM (≈ 13.1 µg/mL)
MIC [24]: 128 µM (≈ 209 µg/mL)
MIC [25]: 16 µM (≈ 26.2 µg/mL)
MIC (Escherichia coli UB1005): 8 µM (≈ 13.1 µg/mL)
MIC [26]: ≥ 256 µM
SMILES: CC[C@H](C)[C@H](NC(=O)[C@H](CCCN=C(N)N)NC(=O)[C@H](Cc1c[nH]c2ccccc12)NC(=O)[C@H](CCCCN)NC(=O)[C@@H](N)CCCN=C(N)N)C(=O)N[C@H](C(=O)N[C@H](C(=O)N[C@H](C(=O)N[C@@H](CCCN=C(N)N)C(=O)N[C@H](C(=O)N[C@@H](CCCN=C(N)N)C(=O)N[C@@H](CCCN=C(N)N)C(N)=O)C(C)C)[C@@H](C)CC)C(C)C)C(C)C [RKWRIVVIRVRR]

MIC [27]: ≥ 324 µM
MIC [28]: ≥ 324 µM
MIC [29]: ≥ 324 µM
MIC (Escherichia coli): > 324 µM
MIC (Staphylococcus aureus): > 324 µM
SMILES: CC[C@H](C)[C@H](NC(=O)[C@H](CCC(=O)O)NC(=O)[C@H](CO)NC(=O)[C@H](CCCN=C(N)N)NC(=O)[C@@H](N)CO)C(=O)N[C@H](C(=O)N[C@@H](CCC(N)=O)C(=O)N[C@@H](CCCN=C(N)N)C(=O)N[C@@H](CC(C)C)C(=O)N[C@@H](Cc1ccccc1)C(N)=O)C(C)C [SRSEIVQRLF]
